Results taken from patent US5244662A, “Medicinal extract from a mixture of Phellodendron and defatted seed of Croton, and method for it's manufacture” (Korea Green Cross Corporation, priority 1990, dated 1993).

How the values were obtained:
[1] = treatment of osteoporosis; cited from earlier work
osteoporosis = experiment: Clinical trial in osteoporosis; format: in vivo, patient
Source text: (G-1) Clinical trial on a severe case whose vertebral density was just 0.332 g/cm^2 (29% of normal value), that is, corresponding to the 10th year from each menopause and the inability to walk over ten minutes. […]

P388 (ATCC CCL 46) = system: P388 (ATCC CCL 46); design: species or system BDFI mice; details: mouse, in vivo
L1210 (ATCC CCL 219) = system: L1210 (ATCC CCL 219); design: species or system BDFI mice; details: mouse, in vivo
granuloma cells = experiment: Action on primary granuloma cells (progesterone production); format: cell-based, rats
Procedure: Current antitumour drugs affect normal cellular growth as well as growth of tumour cells, whereby very careful therapeutic application of the agents has been required. […] The action of the present extract on spleen cells and granuloma cells was investigated to evaluate the action on normal cellular growth.
The spleen cells originated from BALB/C mice and were cultured in RPMI media under the condition of 7% CO2 /37° C. The granuloma cells originated from the ovum of young rats aged 25 days and were cultured in DMEM/F 12(1:1) media containing fetal bovine serum under the same conditions.

PO-GRSI cells = experiment: Steroid hormone synthesis of PO-GRSI; format: cell-based
Procedure: Granuloma cells play an important role in producing ovum in mammalian animals, and particularly secrete progesterone to enhance the proliferation of ovum. Granuloma cells metastasized artificially with carcinogenic genes (SV-40 and Ha-Ras) have the ability to synthesize both progesterone, the cell's original function and protein, and the original function of the carcinogenic gene. For the test, PO-GRSI and PA-GS6 were cultured in DMEM/F12(1:1) haematologic culture media containing insulin(2 μg/ml), transferin (5 μg/ml), hydrocortisone(40 μg/ml) and fibronectin(5 μg/ml), and the progesterone was analyzed by radioimmunoassay ([…]).
The antitumour activities of the extract obtained in Example 1 against Granuloma cells were determined also by evaluating its action on the progesterone and 20 alpha --OH-- progesterone synthesis of the captioned two kinds of cells. In the meantime, the action of FORSKOLIN to enhance the two steroid hormone syntheses were also checked.

For [F-].[Na+] [Sodium fluoride], the “adverse effects of nausea and gastric irritation” value [1] is given as “About 30%” and the “rheumatic pain in leg joints” value [1] is given as 10%.
CC#C[C@]1(O)CC[C@H]2[C@@H]3CCc4cc(O)ccc4[C@H]3CC[C@@]21C [Estrogen] gave a vertebral density maintained (osteoporosis) of 0.341 g/cm^2.
For CO[C@@]12[C@H](COC(N)=O)C3=C(C(=O)C(C)=C(N)C3=O)N1C[C@@H]1N[C@@H]12 [mitomycin C], the “survival rate (%)” value (P388 (ATCC CCL 46)) was 130.4%, the “survival time” value (P388 (ATCC CCL 46)) was 21.6 days and the “survival rate (%)” value (L1210 (ATCC CCL 219)) was 135%. The “survival time” value (L1210 (ATCC CCL 219)) was 21 days.
With C=C[C@@]1(C)CC(=O)[C@]2(O)[C@@]3(C)[C@@H](O)CCC(C)(C)[C@@H]3[C@H](O)[C@H](OC(C)=O)[C@@]2(C)O1 [forskolin] the “progesterone secretion versus control” value (granuloma cells; forskolin) was “eight times that of the control”, the “progesterone” value (granuloma cells; forskolin 10^-4 M, control 109.6) was 829.0 ng/mL and the “increase of 20 alpha-OH-progesterone synthesis over the control” value (PO-GRSI cells) was 100 times. For the same molecule, the “increase of progesterone synthesis over the control” value (PO-GRSI cells) was 60 times.
